Several values for one entry are separate records, joined by “and”; a condition that tells them apart may be missing. Identical values can stand only once. Inconclusive results and toxic doses are left out. Cut-off read from the data, not from the text of the source: active = T/C of 150% or more; inactive = T/C below 125%.
System: L1210 leukemia ip in BDF1 mice, survival T/C
Experiment: NCI In Vivo Anticancer Drug Screen. Data for tumor model L1210 Leukemia (intraperitoneal) in B6D2F1 (BDF1) mice
Conditions: endpoint: mean survival time, higher = longer survival
Procedure, shortened: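 Value reflects the ratio of survival in compound-treated mice to survival in vehicle-treated controls, with both groups carrying the same transplanted tumor.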

[1] = dose: 100.0 mg/kg/injection, schedule: Q04DX003 (ip), vehicle: saline with Tween-80
[2] = dose: 200.0 mg/kg/injection, schedule: Q04DX003 (ip), vehicle: saline with Tween-80
[3] = dose: 400.0 mg/kg/injection, schedule: Q04DX003 (ip), vehicle: saline with Tween-80
[4] = dose: 100.0 mg/kg/injection, schedule: Q01DX001 (ip), vehicle: saline
[5] = dose: 200.0 mg/kg/injection, schedule: Q01DX001 (ip), vehicle: saline
[6] = dose: 400.0 mg/kg/injection, schedule: Q01DX001 (ip), vehicle: saline
[7] = dose: 100.0 mg/kg/injection, schedule: Q01DX009 (ip), vehicle: saline with Tween-80
[8] = dose: 200.0 mg/kg/injection, schedule: Q01DX009 (ip), vehicle: saline with Tween-80
[9] = dose: 400.0 mg/kg/injection, schedule: Q01DX009 (ip), vehicle: saline with Tween-80
[10] = dose: 75.0 mg/kg/injection, schedule: Q04DX003 (ip), vehicle: Klucel (hydroxypropylcellulose) (HPC)
[11] = dose: 100.0 mg/kg/injection, schedule: Q01DX001 (ip), vehicle: Klucel (hydroxypropylcellulose) (HPC)
[12] = dose: 150.0 mg/kg/injection, schedule: Q04DX003 (ip), vehicle: Klucel (hydroxypropylcellulose) (HPC)
[13] = dose: 200.0 mg/kg/injection, schedule: Q01DX001 (ip), vehicle: Klucel (hydroxypropylcellulose) (HPC)
[14] = dose: 300.0 mg/kg/injection, schedule: Q04DX003 (ip), vehicle: Klucel (hydroxypropylcellulose) (HPC)
[15] = dose: 400.0 mg/kg/injection, schedule: Q01DX001 (ip), vehicle: Klucel (hydroxypropylcellulose) (HPC)

Measured: T/C

COC(=O)NC1CC(OC(=O)c2ccc(C)cc2)C(COC(=O)c2ccc(C)cc2)O1 (stereo not given)
inactive: dose: 50.0 mg/kg/injection, schedule: Q04DX003 (ip), vehicle: saline with Tween-80 96 % of control | dose: 66.0 mg/kg/injection, schedule: Q04DX003 (ip), vehicle: saline 94 % of control | [1] 97 % of control | dose: 100.0 mg/kg/injection, schedule: Q04DX003 (ip), vehicle: saline 100 % of control | dose: 150.0 mg/kg/injection, schedule: Q04DX003 (ip), vehicle: saline 95 % of control | [2] 100 % of control | dose: 225.0 mg/kg/injection, schedule: Q04DX003 (ip), vehicle: saline 95 % of control | dose: 337.0 mg/kg/injection, schedule: Q04DX003 (ip), vehicle: saline 103 % of control | [3] 96 % of control

CN=C(N/N=C(C)\C=N\NC(=NC)N(C)C)N(C)C
inactive: dose: 15.0 mg/kg/injection, schedule: Q01DX Z (ip), vehicle: saline 90 % of control | dose: 30.0 mg/kg/injection, schedule: Q01DX Z (ip), vehicle: saline 106 % of control | dose: 60.0 mg/kg/injection, schedule: Q01DX Z (ip), vehicle: saline 95 % of control and 98 % of control | dose: 120.0 mg/kg/injection, schedule: Q01DX Z (ip), vehicle: saline 97 % of control and 101 % of control | dose: 120.0 mg/kg/injection, schedule: Q01DX Z (oral), vehicle: saline 96 % of control | dose: 240.0 mg/kg/injection, schedule: Q01DX Z (ip), vehicle: saline 95 % of control | dose: 240.0 mg/kg/injection, schedule: Q01DX Z (oral), vehicle: saline 91 % of control | dose: 960.0 mg/kg/injection, schedule: Q01DX Z (oral), vehicle: saline 94 % of control

[O-]c1nn(-c2ccccc2)c2cccc[n+]12
inactive: dose: 75.0 mg/kg/injection, schedule: Q01DX001 (ip), vehicle: saline 111 % of control

Cc1nnc2sc(C(=O)O)nn12
inactive: [4] 90 % of control | [5] 93 % of control | [6] 96 % of control

[O-][n+]1ccnc(C(Cl)(Cl)Cl)c1Cl
inactive: dose: 0.78 mg/kg/injection, schedule: Q01DX009 (ip), vehicle: other 90 % of control | dose: 1.56 mg/kg/injection, schedule: Q01DX009 (ip), vehicle: other 107 % of control | dose: 3.12 mg/kg/injection, schedule: Q01DX009 (ip), vehicle: other 86 % of control

CCC(C(=O)NC(=O)NO)c1ccccc1 (stereo not given)
inactive: dose: 100.0 mg/kg/injection, schedule: Q01DX Z (ip), vehicle: carboxymethylcellulose (CMC) 94 % of control | dose: 300.0 mg/kg/injection, schedule: Q01DX Z (ip), vehicle: carboxymethylcellulose (CMC) 105 % of control | dose: 400.0 mg/kg/injection, schedule: Q01DX Z (ip), vehicle: carboxymethylcellulose (CMC) 90 % of control

OC(COc1ccccc1)CN1CCN(c2cccc(Cl)c2)CC1 (stereo not given)
inactive: [4] 97 % of control | [5] 95 % of control | [6] 92 % of control

Cc1ccc(Cl)cc1NC(=O)c1c(Br)c(Br)c(Br)c(Br)c1C(=O)O
inactive: [7] 105 % of control | [1] 97 % of control | [8] 105 % of control | [2] 101 % of control | [9] 113 % of control | [3] 101 % of control

O=C(O)CSc1ccccc1C(=O)O
inactive: dose: 50.0 mg/kg/injection, schedule: Q01DX001 (ip), vehicle: saline 93 % of control | [10] 94 % of control | [11] 96 % of control | [4] 100 % of control | [12] 90 % of control | [13] 120 % of control | [5] 102 % of control | [14] 92 % of control | [15] 102 % of control

CCOC(OCC)C(C)(C)CNC
inactive: dose: 100.0 mg/kg/injection, schedule: Q01DX001 (ip), vehicle: saline sonified 90 % of control | dose: 200.0 mg/kg/injection, schedule: Q01DX001 (ip), vehicle: saline sonified 101 % of control | dose: 400.0 mg/kg/injection, schedule: Q01DX001 (ip), vehicle: saline sonified 107 % of control

Cc1cccc2sc(=S)[nH]c12
inactive: dose: 37.5 mg/kg/injection, schedule: Q04DX003 (ip), vehicle: Klucel (hydroxypropylcellulose) (HPC) 107 % of control | dose: 75.0 mg/kg/injection, schedule: Q01DX009 (ip), vehicle: Klucel (hydroxypropylcellulose) (HPC) 92 % of control | [10] 101 % of control | dose: 150.0 mg/kg/injection, schedule: Q01DX009 (ip), vehicle: Klucel (hydroxypropylcellulose) (HPC) 92 % of control | [12] 93 % of control | dose: 300.0 mg/kg/injection, schedule: Q01DX009 (ip), vehicle: Klucel (hydroxypropylcellulose) (HPC) 93 % of control | [14] 95 % of control

C#CCC1CCCC/C1=N\Nc1ccc([N+](=O)[O-])cc1[N+](=O)[O-] (stereo not given)
inactive: dose: 100.0 mg/kg/injection, schedule: Q04DX002 (ip), vehicle: Klucel (hydroxypropylcellulose) (HPC) 96 % of control | dose: 200.0 mg/kg/injection, schedule: Q04DX002 (ip), vehicle: Klucel (hydroxypropylcellulose) (HPC) 103 % of control | dose: 400.0 mg/kg/injection, schedule: Q04DX002 (ip), vehicle: Klucel (hydroxypropylcellulose) (HPC) 92 % of control

CCCCc1c(N)nc(N)nc1-c1ccccc1
inactive: [11] 112 % of control | [13] 105 % of control | [15] 94 % of control

O=C1N/C(=N/OCc2ccc([N+](=O)[O-])cc2)CC(NOCc2ccc([N+](=O)[O-])cc2)N1 (stereo not given)
inactive: [1] 91 % of control | [2] 101 % of control | [3] 89 % of control

Cc1c2cc3c(cc2cc2c4cc5c(cc4cc[n+]12)OCO5)OCO3 (tested in a mixture with another compound)
inactive: dose: 5.5 mg/kg/injection, schedule: Q04DX003 (ip), vehicle: saline 110 % of control | dose: 6.25 mg/kg/injection, schedule: Q01DX009 (ip), vehicle: saline 110 % of control | dose: 8.3 mg/kg/injection, schedule: Q04DX003 (ip), vehicle: saline 108 % of control | dose: 12.5 mg/kg/injection, schedule: Q01DX009 (ip), vehicle: saline 89 % of control | dose: 12.5 mg/kg/injection, schedule: Q04DX003 (ip), vehicle: saline 98 % of control | dose: 18.7 mg/kg/injection, schedule: Q04DX003 (ip), vehicle: saline 93 % of control

COc1cc(C=O)ccc1OCc1ccccc1
inactive: [7] 96 % of control and 93 % of control | [1] 110 % of control | [8] 96 % of control | [2] 94 % of control | [9] 98 % of control and 93 % of control | [3] 100 % of control

COc1ccc(OC)c2cc3ccccc3cc12
inactive: dose: 100.0 mg/kg/injection, schedule: Q01DX001 (ip), vehicle: carboxymethylcellulose (CMC) 106 % of control | dose: 200.0 mg/kg/injection, schedule: Q01DX001 (ip), vehicle: carboxymethylcellulose (CMC) 104 % of control | dose: 400.0 mg/kg/injection, schedule: Q01DX001 (ip), vehicle: carboxymethylcellulose (CMC) 93 % of control

Cc1ccc(C(=O)C(Br)C(Br)c2ccc(C)cc2)cc1 (stereo not given)
inactive: [11] 105 % of control | dose: 100.0 mg/kg/injection, schedule: Q01DX009 (ip), vehicle: Klucel (hydroxypropylcellulose) (HPC) 96 % of control | [13] 99 % of control | dose: 200.0 mg/kg/injection, schedule: Q01DX009 (ip), vehicle: Klucel (hydroxypropylcellulose) (HPC) 91 % of control | [15] 94 % of control | dose: 400.0 mg/kg/injection, schedule: Q01DX009 (ip), vehicle: Klucel (hydroxypropylcellulose) (HPC) 95 % of control

Reference: PubChem BioAssay AID248 (DTP/NCI, 2004)
